# Measured values reported in patent US7579018B2, “Microbiological control in aqueous systems” (Albemarle Corporation, priority 2000, dated 2009).
# Tests used:
# [1] = “free chlorine” (Hach Method 8021) and “total chlorine” (Hach Method 8167) in dosed simulated cooling water, Example 1; assay type: physicochemical; conditions: for Free Cl2 / Total Cl2 / % hydrolysis to Free Cl2: simulated cooling water pH 9.1, 38° C.
# Excerpt: The standard tests for determination of “free chlorine” and “total chlorine” are based on classical test procedures devised by Palin in 1974. See A. T. Palin, “Analytical Control of Water Disinfection With Special Reference to Differential DPD Methods For Chlorine, Chlorine Dioxide, Bromine, Iodine and Ozone”, J. Inst. Water Eng., 1974, 28, 139. While there are various modernized versions of the Palin procedures, the version of the tests for “free chlorine” and “total chlorine” used and to be used as the standard in connection with this invention, are fully described in Hach Water Analysis Handbook, 3rd edition, copyright 1997. The procedure for “free chlorine” is identified in that publication as Method 8021 appearing on page 335, whereas the procedure for “total chlorine” is Method 8167 appearing at page 379. Briefly, the “free chlorine” test involves introducing to the halogenated water a powder comprising DPD indicator powder and a buffer. “Free chlorine” present in the water reacts with the DPD indicator to produce a red to pink coloration. The intensity of the coloration depends upon the concentration of “free chlorine” species present in the sample. This intensity is measured by a calorimeter calibrated to transform the intensity reading into a “free chlorine” value in terms of mg/L Cl2. Similarly, the “total chlorine” test also involves use of DPD indicator and buffer. In this case, KI is present with the DPD and buffer whereby the halogen species present, including nitrogen-combined halogen, reacts with KI to yield iodine species which turn the DPD indicator to red/pink. The intensity of this coloration depends upon the sum of the “free chlorine” species and all other halogen species present in the sample. Consequently, this coloration is transformed by the colorimeter into a “total chlorine” value expressed as mg/L Cl2.
# DBDAH and BCDMH Test Procedure • 1. To determine the amount of species present in the water which respond to the “free chlorine” and “total chlorine” tests, the water sample should be analyzed within a few minutes of being taken, and preferably immediately upon being taken. • 2. Hach Method 8021 for testing the amount of species present in the water sample which respond to the “free chlorine” test involves use of the Hach Model DR 2010 calorimeter. The stored program number for chlorine determinations is recalled by keying in “80” on the keyboard, followed by setting the absorbance wavelength to 530 nm by rotating the dial on the side of the instrument. Two identical sample cells are filled to the 10 mL mark with the water under investigation. One of the cells is arbitrarily chosen to be the blank. Using the 10 mL cell riser, this is admitted to the sample compartment of the Hach Model DR 2010, and the shield is closed to prevent stray light effects. Then the ZERO key is depressed. After a few seconds, the display registers 0.00 mg/L Cl2. To second cell, the contents of a DPD Free Chlorine Powder Pillow are added. This is shaken for 10-20 seconds to mix, as the development of a pink-red color indicates the presence of species in the water which respond positively to the DPD test reagent. Within one minute of adding the DPD “free chlorine” reagent to the 10 mL of water in the sample cell, the blank cell used to zero the instrument is removed from the cell compartment of the Hach Model DR 2010 and replaced with the test sample to which the DPD “free chlorine” test reagent was added. The light shield is then closed as was done for the blank, and the READ key is depressed. The result, in mg/L Cl2 is shown on the display within a few seconds. This is the “free chlorine” level of the water sample under investigation. • 3. Hach Method 8167 for testing the amount of species present in the water sample which respond to the “total chlorine” test involves use of the Hach Model DR 2010 calorimeter. […]
# [2] = system: aerobic bacteria; experiment: Cooling tower field trial of 51 days, Example 3: bacteria levels
# Excerpt: Using the same cooling tower as used in Example 2, the effectiveness of 1,3-dibromo-5,5-dimethylhydantoin in microbiological control in cooling tower water was investigated. As noted above, the cooling tower consisted of two 500-ton units in a crossflow design. The total system-contained volume was 14,000 gallons, and the tower contained medium efficiency film fill. Water from the tower cooled the coils of two 300-ton air conditioners (chillers). The tower typically operated at a pH of about 9.1 and 4 cycles of concentration. Blowdown was controlled by conductivity. Make-up water consisted of softened city water and which was of good quality. The make-up water was very low in calcium (<10 mg/L) but high in pH (8.7). The alkalinity was 145 mg/L (as CaCO3), and the silica level was 28 mg/L. The tower employed a conventional polyphosphate/molybdate/phosphonate program to provide corrosion and deposit control.
# The 1,3-dibromo-5,5-dimethylhydantoin was introduced to the water using granules charged to a solid halogen feeder (Neptune model BT-40, Neptune Chemical Pump Co., Inc., Lansdale, Pa.). The field trial lasted 51 days. The tower was slug dosed three times a week with 1,3-dibromo-5,5-dimethylhydantoin. Slug dosing was accomplished by diverting a sidestream of the recirculating water through the feeder containing the granules for about 1 to 5 hours until a total halogen residual of about 0.75 mg/L (as Cl2) was obtained. This biocide program reduced bacterial levels in the bulk water by an average of 2 orders of magnitude, with bacteria levels in the bulk water after the biocide dose ranging from 10^1 to 10^3 CFUs/mL.
# The results from the average of several analyses conducted during the course of this field trial using DBDMH were as follows: In the microbiological tests, the levels of aerobic bacteria were in the range of 6×10^0 to 3×10^3 CFUs/mL in the cooling tower water and 10^0 in the make-up water. […]
# [3] = dosed to 1 mg/L as total chlorine, Time 0 hr
# [4] = Time 0.5 hr, percentage of Time 0 value
# [5] = Time 1 hr, percentage of Time 0 value
# [6] = Time 1.5 hr, percentage of Time 0 value
# [7] = Time 2 hr, percentage of Time 0 value
# [8] = Time 3 hr, percentage of Time 0 value
# [9] = Time 4 hr, percentage of Time 0 value
# [10] = Time 5 hr, percentage of Time 0 value
# [11] = Time 6 hr, percentage of Time 0 value
smiles,measurement,setting,value
"CC1(C)C(=O)N(Br)C(=O)N1Br [DBDMH, 1,3-dibromo-5,5-dimethylhydantoin]",Free Cl2,[1]; [3],98.8
same,Total Cl2,[1]; [3],100
same,% hydrolysis to Free Cl2,[1]; Time 0 hr,98.8%
same,% hydrolysis to Free Cl2,[1]; Time 0.5 hr,95.6%
same,Free Cl2,[1]; [4],100%
same,Total Cl2,[1]; [4],104%
same,% hydrolysis to Free Cl2,[1]; Time 1 hr,97.3%
same,Free Cl2,[1]; [5],85.1%
same,Total Cl2,[1]; [5],87.3%
same,% hydrolysis to Free Cl2,[1]; Time 1.5 hr,100%
same,Free Cl2,[1]; [6],87.3%
same,Total Cl2,[1]; [6],87.3%
same,% hydrolysis to Free Cl2,[1]; Time 2 hr,97.2%
same,Free Cl2,[1]; [7],81.6%
same,Total Cl2,[1]; [7],83.9%
same,% hydrolysis to Free Cl2,[1]; Time 3 hr,93.8%
same,Free Cl2,[1]; [8],70.1%
same,Total Cl2,[1]; [8],74.7%
same,% hydrolysis to Free Cl2,[1]; Time 4 hr,93.8%
same,Free Cl2,[1]; [9],65.5%
same,Total Cl2,[1]; [9],66.6%
same,% hydrolysis to Free Cl2,[1]; Time 5 hr,96.4%
same,Free Cl2,[1]; [10],60.1%
same,Total Cl2,[1]; [10],63.2%
same,% hydrolysis to Free Cl2,[1]; Time 6 hr,96.3%
same,Free Cl2,[1]; [11],59.8%
same,Total Cl2,[1]; [11],62%
same,“total chlorine” level higher than the “free chlorine level” of the water,[1]; water of pH of at least 8 freshly treated,no more than 10%
same,levels of aerobic bacteria,"[2]; in the cooling tower water, several analyses during field trial",6×10^0 to 3×10^3 CFUs/mL
same,bacteria levels in the bulk water after the biocide dose,[2]; slug dosed three times a week to total halogen residual about 0.75 mg/L (as Cl2),10^1 to 10^3 CFUs/mL
same,average reduction of bacterial levels in the bulk water,"[2]; slug dosed three times a week to total halogen residual about 0.75 mg/L (as Cl2), 51 days",2 orders of magnitude
